From ChEMBL document CHEMBL1138740, “Design of 2,5-dimethyl-3-(6-dimethyl-4-methylpyridin-3-yl)-7-dipropylaminopyrazolo[1,5-a]pyrimidine (NBI 30775/R121919) and structure--activity relationships of a series of potent and orally active corticotropin-releasing factor receptor antagonists” (J Med Chem, 2004)

Experiments:
[1] = biological target: T1, Corticotropin-releasing factor receptor 1 (Homo sapiens, UniProt P34998); assay: Inhibition of [125I]o-CRF binding to CHO cells expressing human CRF1 receptor; format: cell-based
T1 sequence (P34998 whole entry): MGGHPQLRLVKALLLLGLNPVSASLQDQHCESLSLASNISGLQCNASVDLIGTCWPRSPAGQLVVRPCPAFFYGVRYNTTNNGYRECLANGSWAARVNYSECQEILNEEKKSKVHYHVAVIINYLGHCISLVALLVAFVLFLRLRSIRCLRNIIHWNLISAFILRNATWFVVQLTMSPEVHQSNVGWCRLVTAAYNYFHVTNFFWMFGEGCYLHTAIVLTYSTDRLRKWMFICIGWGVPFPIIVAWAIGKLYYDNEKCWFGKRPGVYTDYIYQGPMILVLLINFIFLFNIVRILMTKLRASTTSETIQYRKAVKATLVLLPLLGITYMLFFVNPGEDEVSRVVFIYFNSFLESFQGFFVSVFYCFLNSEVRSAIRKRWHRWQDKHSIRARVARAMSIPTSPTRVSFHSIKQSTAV

[2] = biological target: T1, Corticotropin-releasing factor receptor 1; assay: Inhibition of CRF-stimulated cAMP production in CHO cells expressing human CRF1 receptor
[3] = Plasma volume distribution determined in dawley rats; format: ADME, organism-based; settings: Sprague-Dawley, rat
[4] = Plasma clearance determined in dawley rats; format: ADME, organism-based; settings: Sprague-Dawley, rat
[5] = Plasma half-life determined in dawley rats; format: ADME; settings: Sprague-Dawley, rat

For `CCN(Cc1ccc(C)cc1)c1cc(C)nc2c(-c3cnc(N(C)C)cc3C)c(C)nn12`, the Ki [1] was 2.3 nM.
`CCCN(CCC)c1c(F)c(C)nc2c(-c3cnc(N(C)C)cc3C)c(C)nn12` gave an IC50 [2] of 50 nM and a Ki [1] of 5.6 nM.
Compound `Cc1cc(N(Cc2ccccc2)C(C)C)n2nc(C)c(-c3cnc(N(C)C)cc3C)c2n1` has a Ki [1] of 11 nM.
In the case of `CCCN(CCC)c1cc(C)nc2c(-c3ncc(N(C)C)cc3C)c(C)nn12`, the IC50 [2] is reported as 160 nM.
Work on `CCCN(CC1CC1)c1cc(C)nc2c(-c3ccc(Cl)cc3Cl)c(C)nn12` yielded an IC50 [2] of 29 nM and a Ki [1] of 1.6 nM.
For `CCCN(CCC)c1cc(C)nc2c(-c3c(C)cc(N(C)C)nc3C)c(C)nn12`, the IC50 [2] was 40 nM and the Ki [1] was 5.2 nM.
Work on `CCCN(CCOC)c1cc(C)nc2c(-c3ccc(OC)cc3OC)c(C)nn12` yielded an IC50 [2] of 76 nM.
For `CCCCN(CCCC)c1cc(C)nc2c(-c3cnc(N(C)C)cc3C)c(C)nn12`, the Ki [1] was 4.2 nM.
In the case of `Cc1cc(NC(C)C(C)C)n2nc(C)c(-c3cnc(N(C)C)cc3C)c2n1` (stereo not given), the Ki [1] is reported as 17 nM.
`CCN(Cc1ccccc1F)c1cc(C)nc2c(-c3cnc(N(C)C)cc3C)c(C)nn12` gave a Ki [1] of 3.4 nM.
For `CCCN(Cc1cccc(OC)c1)c1cc(C)nc2c(-c3cnc(N(C)C)cc3C)c(C)nn12`, the Ki [1] was 24 nM.
`CCC(CC)Nc1cc(C)nc2c(-c3cnc(N(C)C)cc3C)c(C)nn12` gave a Ki [1] of 9.4 nM.
`CCCN(CC1CC1)c1cc(C)nc2c(-c3cnc(N(C)C)cc3C)c(C)nn12` showed a Ki [1] of 2.6 nM.
With `COCC(Cc1ccccc1)Nc1cc(C)nc2c(-c3cnc(N(C)C)cc3C)c(C)nn12` (stereo not given) the Ki [1] was 6.5 nM.
`CCCC(CCC)Nc1cc(C)nc2c(-c3cnc(N(C)C)cc3C)c(C)nn12` gave a Ki [1] of 4.8 nM.
`CCCCN(CC)c1cc(C)nc2c(-c3cnc(N(C)C)cc3C)c(C)nn12` gave a Ki [1] of 2.6 nM.
With `CCCN(CCC)c1c(Cl)c(C)nc2c(-c3cnc(N(C)C)cc3C)c(C)nn12` the Ki [1] was 39 nM.
Compound `CCCN(c1ccccc1)c1cc(C)nc2c(-c3cnc(N(C)C)cc3C)c(C)nn12` has a Ki [1] of 8.8 nM.
For `CCCN(CCC)c1cc(C)nc2c(-c3ccc(C)nc3)c(C)nn12`, the Ki [1] was 21 nM.
`CCC(COC)Nc1cc(C)nc2c(-c3cnc(N(C)C)cc3C)c(C)nn12` (stereo not given) gave a Ki [1] of 260 nM.
`CCN(Cc1ccc(Cl)cc1)c1cc(C)nc2c(-c3cnc(N(C)C)cc3C)c(C)nn12` showed a Ki [1] of 1.3 nM.
`CCCN(CCC)c1cc(C)nc2c(-c3cnc(C)cc3C)c(C)nn12` gave a Ki [1] of 7.3 nM.
Compound `CCCN(CCC)c1cc(C)nc2c(-c3cnc(N(C)C)cc3C)c(C)nn12` has a Vd [3] of 16.7 L/kg, a clearance [4] of 112 mL/min/kg and a half-life [5] of 102 min.
Work on `CCN(Cc1ccccc1C)c1cc(C)nc2c(-c3cnc(N(C)C)cc3C)c(C)nn12` yielded a Ki [1] of 2.4 nM.
In the case of `Cc1cc(NC(C)CCC(C)C)n2nc(C)c(-c3cnc(N(C)C)cc3C)c2n1` (stereo not given), the Ki [1] is reported as 13 nM.
Work on `CCN(Cc1cccc(C)c1)c1cc(C)nc2c(-c3cnc(N(C)C)cc3C)c(C)nn12` yielded a Ki [1] of 2.4 nM.
With `CCCN(CCC)c1c(Br)c(C)nc2c(-c3cnc(N(C)C)cc3C)c(C)nn12` the Ki [1] was 240 nM.
With `CCCN(CCC)c1cc(C)nc2c(-c3ccc(N(C)C)nc3)c(C)nn12` the IC50 [2] was 110 nM and the Ki [1] was 4.2 nM.
`CCN(Cc1ccc(Cl)c(Cl)c1)c1cc(C)nc2c(-c3cnc(N(C)C)cc3C)c(C)nn12` gave a Ki [1] of 2.5 nM.
Compound `CCCCN(Cc1ccccc1)c1cc(C)nc2c(-c3cnc(N(C)C)cc3C)c(C)nn12` has a Ki [1] of 2.9 nM.
Compound `CCCN(Cc1ccc2ccccc2c1)c1cc(C)nc2c(-c3cnc(N(C)C)cc3C)c(C)nn12` has a Ki [1] of 15 nM.
Work on `CCCN(Cc1ccccc1)c1cc(C)nc2c(-c3cnc(N(C)C)cc3C)c(C)nn12` yielded a Ki [1] of 5.2 nM.
In the case of `CCCN(CCC)c1cc(C)nc2c(-c3ccc(N(C)C)nc3C)c(C)nn12`, the IC50 [2] is reported as 190 nM and the Ki [1] is reported as 2.2 nM.
